Measured values reported in ChEMBL document CHEMBL1201862, “PubChem BioAssay data set” (2004).
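Grown in 96-well plates, cells were treated for 48 hours with each compound at five concentrations. Insufficient inhibition: endpoint recorded as highest concentration tested. Here, GI50 denotes the concentration required for 50% inhibition of growth.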 Calls of active or inactive are those of the source. No stated cut-off is given here; in the data, active = GI50 up to about 1.1 µM and inactive = higher.

Key:
Test in all cases: NCI anticancer screen, dose series, 48 h
SN12C = test system: SN12C
DMS-273 = test system: DMS-273
BT-549 = test system: BT-549
HT-29 = test system: HT-29
HCT-116 = test system: HCT-116
SW-620 = test system: SW-620
CAKI-1 = test system: CAKI-1
M19-MEL = test system: M19-MEL
MDA-N = test system: MDA-N
OVCAR-3 = test system: OVCAR-3
OVCAR-8 = test system: OVCAR-8
SNB-78 = test system: SNB-78
K562 = test system: K562
UACC-62 = test system: UACC-62
COLO 205 = test system: COLO 205
MCF7 = test system: MCF7
KM-20L2 = test system: KM-20L2
NCI-H23 = test system: NCI-H23
MDA-MB-435 = test system: MDA-MB-435
HL-60 = test system: HL-60

Measured: GI50

CC(=O)/C(C)=N/NC(=O)c1ccccc1O
inactive: SN12C > 10 µM | DMS-273 > 10 µM | BT-549 > 100 µM | HT-29 > 10 µM | HCT-116 > 10 µM | SW-620 > 10 µM | CAKI-1 > 10 µM | M19-MEL > 10 µM | MDA-N > 100 µM | OVCAR-3 69.5 µM | OVCAR-8 > 10 µM | SNB-78 > 10 µM | K562 37 µM | UACC-62 39.7 µM | COLO 205 > 10 µM | MCF7 > 100 µM | KM-20L2 > 10 µM | NCI-H23 > 10 µM | MDA-MB-435 > 100 µM

COC(=O)c1c(OC)cccc1C(=O)O
inactive: SN12C > 100 µM | DMS-273 > 100 µM | HL-60 > 100 µM | HT-29 > 100 µM | HCT-116 > 100 µM | SW-620 > 100 µM | CAKI-1 > 100 µM | M19-MEL > 100 µM | OVCAR-3 > 100 µM | OVCAR-8 > 100 µM | SNB-78 > 100 µM | K562 > 100 µM | UACC-62 > 100 µM | COLO 205 > 100 µM | KM-20L2 > 100 µM | NCI-H23 > 100 µM

CC1CN1c1c(C(=O)/C=C/c2ccccc2)c(-c2ccccc2)nn(C)c1=O (stereo unspecified)
inactive: SN12C 17.7 µM | DMS-273 16.7 µM | HL-60 17.2 µM | HT-29 15.7 µM | HCT-116 17.5 µM | SW-620 18.2 µM | CAKI-1 37.4 µM | M19-MEL 17.3 µM | OVCAR-3 18.5 µM | OVCAR-8 19.1 µM | SNB-78 18.2 µM | K562 18.2 µM | UACC-62 16.2 µM | COLO 205 16.2 µM | KM-20L2 19.1 µM | NCI-H23 16.6 µM
